According to US20180030108A1, “NOVEL VOLTAGE-DEPENDENT ION CHANNEL FUSIONS AND METHOD OF USE THEREOF” (UNIVERSITE DE BORDEAUX, priority 2015, published 2018):
Blank lines part the entries; values can stand above or below the molecule they belong to.

Experiments:
YFP-hTRPV1-rLuc [1] = target: T1, YFP-hTRPV1-rLuc (Homo sapiens, UniProt Q8NER1); assay: Intramolecular YFP-hTRPV1-rLuc BRET probe in HEK293T cells; type: cell-based; conditions: for effect on the CAPS dose response curve: cells pre-incubated with 1 μM inhibitor (FIG. 10); for effect on the capsaicin dose-response curve: pre-incubated 5 minutes before readings, 37° C. (FIG. 6)
T1 construct: expressed in transfected cells; host or cells: HEK293T
T1 sequence (Q8NER1 whole entry): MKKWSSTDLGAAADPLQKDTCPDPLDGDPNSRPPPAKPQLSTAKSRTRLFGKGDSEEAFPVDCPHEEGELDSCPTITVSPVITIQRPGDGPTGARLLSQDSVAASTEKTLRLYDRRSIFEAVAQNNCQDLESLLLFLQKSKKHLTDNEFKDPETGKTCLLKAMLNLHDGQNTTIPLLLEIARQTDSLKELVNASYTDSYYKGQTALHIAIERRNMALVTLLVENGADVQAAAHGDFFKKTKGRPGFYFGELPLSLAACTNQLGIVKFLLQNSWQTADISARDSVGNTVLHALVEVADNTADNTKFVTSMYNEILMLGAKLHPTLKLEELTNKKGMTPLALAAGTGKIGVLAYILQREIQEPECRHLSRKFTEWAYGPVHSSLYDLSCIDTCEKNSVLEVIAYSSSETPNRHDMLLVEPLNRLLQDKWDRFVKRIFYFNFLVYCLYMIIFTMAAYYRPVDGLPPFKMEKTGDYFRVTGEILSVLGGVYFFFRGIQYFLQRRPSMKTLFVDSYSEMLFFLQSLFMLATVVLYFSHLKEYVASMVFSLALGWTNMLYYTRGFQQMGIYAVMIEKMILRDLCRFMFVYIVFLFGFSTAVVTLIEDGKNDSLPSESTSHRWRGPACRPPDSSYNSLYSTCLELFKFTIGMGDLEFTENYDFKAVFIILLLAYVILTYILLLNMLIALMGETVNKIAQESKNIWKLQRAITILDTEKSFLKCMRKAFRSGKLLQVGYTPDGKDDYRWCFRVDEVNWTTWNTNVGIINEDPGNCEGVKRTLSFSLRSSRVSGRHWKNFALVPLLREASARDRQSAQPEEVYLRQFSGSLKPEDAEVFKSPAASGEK

YFP-hTRPV3-rLuc = YFP-hTRPV3-rLuc (Homo sapiens, UniProt Q8NET8); conditions: 33° C., kinetic
Chain of YFP-hTRPV3-rLuc (Q8NET8 whole entry): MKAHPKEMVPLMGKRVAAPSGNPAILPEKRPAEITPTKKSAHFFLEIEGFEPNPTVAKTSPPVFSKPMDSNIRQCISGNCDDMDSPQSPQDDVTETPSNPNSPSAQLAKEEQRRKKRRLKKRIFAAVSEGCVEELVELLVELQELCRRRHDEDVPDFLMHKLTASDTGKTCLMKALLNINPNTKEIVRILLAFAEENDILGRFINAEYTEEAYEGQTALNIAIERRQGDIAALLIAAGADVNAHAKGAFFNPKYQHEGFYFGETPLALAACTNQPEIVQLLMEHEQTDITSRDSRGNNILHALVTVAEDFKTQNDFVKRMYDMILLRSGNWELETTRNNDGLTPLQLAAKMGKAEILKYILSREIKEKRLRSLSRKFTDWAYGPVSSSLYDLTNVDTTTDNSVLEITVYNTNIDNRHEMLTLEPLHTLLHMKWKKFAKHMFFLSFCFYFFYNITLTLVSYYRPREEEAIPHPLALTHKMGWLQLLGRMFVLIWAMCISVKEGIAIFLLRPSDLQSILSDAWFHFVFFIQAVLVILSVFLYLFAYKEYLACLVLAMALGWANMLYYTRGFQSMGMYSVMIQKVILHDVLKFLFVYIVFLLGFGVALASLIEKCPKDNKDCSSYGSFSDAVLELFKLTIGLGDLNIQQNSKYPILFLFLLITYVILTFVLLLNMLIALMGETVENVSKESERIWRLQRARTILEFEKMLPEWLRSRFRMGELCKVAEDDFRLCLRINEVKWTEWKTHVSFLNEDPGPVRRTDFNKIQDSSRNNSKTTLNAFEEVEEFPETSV

TRPV1-Luc/YFP-CaM = TRPV1-Luc/YFP-CaM (Homo sapiens, UniProt Q8NER1); conditions: for effect on the CAPS dose response curve: cells pre-incubated with 1 μM inhibitor (FIG. 10)
Chain of TRPV1-Luc/YFP-CaM (Q8NER1 whole entry): as the sequence (Q8NER1 whole entry) above

TRPV4-Luc/YFP-CaM = target: T2, TRPV4-Luc/YFP-CaM (Homo sapiens, UniProt Q9HBA0); assay: Intermolecular TRPV4-Luc/YFP-CaM BRET test in HEK293T cells; type: cell-based
T2 construct: expressed in transfected cells; host or cells: HEK293T
T2 sequence (Q9HBA0 whole entry): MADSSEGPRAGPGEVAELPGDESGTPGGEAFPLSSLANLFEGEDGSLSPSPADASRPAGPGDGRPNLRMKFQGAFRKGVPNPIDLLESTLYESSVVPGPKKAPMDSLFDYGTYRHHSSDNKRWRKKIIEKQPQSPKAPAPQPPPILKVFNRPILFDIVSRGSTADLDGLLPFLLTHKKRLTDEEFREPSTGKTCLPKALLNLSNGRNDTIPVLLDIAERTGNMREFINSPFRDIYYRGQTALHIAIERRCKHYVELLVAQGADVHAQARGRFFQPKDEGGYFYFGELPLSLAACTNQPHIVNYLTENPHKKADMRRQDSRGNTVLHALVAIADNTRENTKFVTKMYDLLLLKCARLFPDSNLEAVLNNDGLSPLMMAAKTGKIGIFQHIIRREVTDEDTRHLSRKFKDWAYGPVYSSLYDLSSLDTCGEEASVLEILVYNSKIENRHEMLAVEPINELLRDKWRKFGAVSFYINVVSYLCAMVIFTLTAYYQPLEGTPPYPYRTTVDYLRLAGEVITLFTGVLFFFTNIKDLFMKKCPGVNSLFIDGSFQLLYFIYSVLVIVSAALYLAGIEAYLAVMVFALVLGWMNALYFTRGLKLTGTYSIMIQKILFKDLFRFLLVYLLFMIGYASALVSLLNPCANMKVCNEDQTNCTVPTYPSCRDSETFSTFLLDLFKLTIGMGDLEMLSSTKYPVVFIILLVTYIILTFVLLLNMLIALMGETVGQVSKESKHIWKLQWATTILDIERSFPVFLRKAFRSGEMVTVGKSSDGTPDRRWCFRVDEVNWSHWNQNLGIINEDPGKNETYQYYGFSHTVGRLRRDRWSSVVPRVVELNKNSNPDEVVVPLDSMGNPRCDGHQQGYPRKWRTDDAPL
Description: An intermolecular TRPV4 BRET probe where the RLuc was fused to the TRPV4 in C-terminal and YFP was fused to the N-terminus part of Calmodulin. Kinetic (FIG. 14A) and dose response curve (FIG. 14B) of the effect of the TRPV4 agonist GSK1016790A on HEK293T cells expressing the TRPV4-Luc/YFP-CaM constructs were obtained. In FIG. 14A, cells were activated with 1 μM of agonist at the time indicated with an arrow. In FIG. 14B, the test was done in presence (square) or absence of the TRPV inhibitor Ruthenium Red (10 μM).

[2] = system: HEK293T cells transfected with an empty vector; assay: Intracellular calcium by Fura 2-AM, HEK293T cells transfected with an empty vector; type: cell-based, human; conditions: 1 μM capsaicin, 37° C.
wild-type TRPV1 = target: T3, wild-type TRPV1 (Homo sapiens, UniProt Q8NER1); assay: Intracellular calcium by Fura 2-AM, HEK293T cells expressing wild-type TRPV1; type: cell-based; conditions: 1 μM capsaicin, 37° C.
T3 construct: expressed in transfected cells; host or cells: HEK293T
T3 sequence (Q8NER1 whole entry): as the sequence (Q8NER1 whole entry) above

YFP-hTRPV1-rLuc [3] = target: T1, YFP-hTRPV1-rLuc; assay: Intracellular calcium by Fura 2-AM, HEK293T cells expressing YFP-hTRPV1-rLuc; type: cell-based; conditions: 1 μM capsaicin, 37° C.
[4] = target: TRPV1-Luc (human; Renilla) (UniProt Q8NER1); assay: intermolecular BRET kinetics in living HEK293T cells co-expressing TRPV1-Luc and YFP-CaM, after capsaicin injection
Chain of TRPV1-Luc (human; Renilla) (Q8NER1 whole entry): as above

[5] = HEK293T cells pre-incubated with the antagonist, heated
[6] = HEK293T cells pre-incubated with the antagonist
[7] = temperature rise from 25° C. to 42° C.

Molecule: NCCOB(c1ccccc1)c1ccccc1 [2-APB, 2-Aminoethyl diphenylborinate]
- evolution of the BRET signal after addition to the culture media (YFP-hTRPV3-rLuc): increase in the BRET value within seconds

Molecule: CCCCCCCCC(=O)NCc1cc(OC)c(O)cc1I [6 iodo-CAPS]
- temperature from which BRET signal decreased (YFP-hTRPV1-rLuc [1]; [5]): 48 °C
- ratio of net BRET as initially measured at 29.5° C. (YFP-hTRPV1-rLuc [1]; [6]): 0.28

Molecule: CC(=O)Nc1nc2c(Oc3cc(-c4ccc(C(F)(F)F)cc4)ncn3)cccc2s1 [AMG517]
- effect on the CAPS dose response curve (TRPV1-Luc/YFP-CaM): right shift
- temperature-induced BRET increase (TRPV1-Luc/YFP-CaM; cells preincubated with inhibitor, temperature increased from 25° C. to 50° C.): no significant BRET increase
- effect on the CAPS dose response curve (YFP-hTRPV1-rLuc [1]): right shift
- effect on the capsaicin dose-response curve (YFP-hTRPV1-rLuc [1]): right-shift

Molecule: CC(C)C[C@H](NC(=O)c1cc2ccccc2s1)C(=O)N1CCN(C(=O)[C@H](CO)NS(=O)(=O)c2ccc(Cl)cc2Cl)CC1 [GSK1016790A]
- EC50 (TRPV4-Luc/YFP-CaM; control condition (absence of Ruthenium Red), log value): 12.9 µM

Molecule: N.N.N.N.N.N.N.N.N.N.N.N.N.N.[Cl-].[Cl-].[Cl-].[Cl-].[Cl-].[Cl-].[O-2].[O-2].[Ru+3].[Ru+3].[Ru+4] [Ruthenium Red]
- BRET increase induced by the TRPV4 agonist GSK1016790A (TRPV4-Luc/YFP-CaM; Ruthenium Red 10 μM): No BRET increase

Second part, led by results:

- temperature at which BRET signal plateaued (YFP-hTRPV1-rLuc [1]; [5]): 52 °C
- ratio of net BRET as initially measured at 29.5° C. (YFP-hTRPV1-rLuc [1]; [6]): 0.93
Molecule: c1ccc(C2(c3ccccc3)CCCO2)cc1 [2,2-Diphenyltetrahydrofuran]

- effect on the CAPS dose response curve (TRPV1-Luc/YFP-CaM): right shift
- temperature where BRET signal started to decrease (YFP-hTRPV1-rLuc [1]; 1 μM CPZ, medium heated from 25° C. to 50° C.): 47 °C
- effect on the CAPS dose response curve (YFP-hTRPV1-rLuc [1]): right shift
- effect on the capsaicin dose-response curve (YFP-hTRPV1-rLuc [1]): right-shift
Molecule: Oc1cc2c(cc1O)CN(C(=S)NCCc1ccc(Cl)cc1)CCC2 [Capsazepine]

- time constant (Tau) of BRET increase (TRPV1-Luc/YFP-CaM; after CAPS injection): 27 s
- BRET over the basal signal following exposure (TRPV1-Luc/YFP-CaM; kinetic, HEK293T cells): robust increase of BRET
- time constant (Tau) of BRET increase (YFP-hTRPV1-rLuc [1]; after CAPS injection): 2 s
- BRET over the basal signal following exposure (YFP-hTRPV1-rLuc [1]; kinetic, HEK293T cells): robust increase of BRET
Molecule: COc1cc(CNC(=O)CCCC/C=C/C(C)C)ccc1O [capsaicin]
- intracellular calcium (Fura 2, I340/I380) [2]: No calcium increase
- effect of temperature rise on capsaicin dose response (TRPV1-Luc/YFP-CaM; [7]): leftward shift of the power of capsaicin while the efficacy remained unchanged
- intracellular calcium (Fura 2, I340/I380) (wild-type TRPV1): rapid and important increase of intracellular calcium
- effect of temperature rise on capsaicin dose response (YFP-hTRPV1-rLuc [1]; [7]): leftward shift of the power of capsaicin while the efficacy remained unchanged
- intracellular calcium (Fura 2, I340/I380) (YFP-hTRPV1-rLuc [3]): rapid and important increase of intracellular calcium

- time constant of the BRET increase after capsaicin [4]: 27 s
Molecule: YFP-CaM (from UniProt P0DP23 1-149)
